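Protocol summary: plate cells (96-well), add compound at 5 concentrations, incubate 48 h, interpolate endpoints linearly. GI50 is the concentration that inhibits growth by half.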 The source made the active and inactive calls. Cut-off read from the data, not from the text of the source: active = GI50 up to about 1.1 µM and inactive = higher.
Legend:
Experiment in all cases: inhibition of tumour cell growth, NCI panel, 48 h
786-0 = tested on: 786-0
A498 = tested on: A498
A549 = tested on: A549
ACHN = tested on: ACHN
BT-549 = tested on: BT-549
CAKI-1 = tested on: CAKI-1
CCRF-CEM = tested on: CCRF-CEM
COLO 205 = tested on: COLO 205
DU-145 = tested on: DU-145
EKVX = tested on: EKVX
HCT-116 = tested on: HCT-116
HCT-15 = tested on: HCT-15
HL-60 = tested on: HL-60
HOP-62 = tested on: HOP-62
HOP-92 = tested on: HOP-92
HT-29 = tested on: HT-29
Hs-578T = tested on: Hs-578T
IGROV-1 = tested on: IGROV-1
K562 = tested on: K562
KM12 = tested on: KM12
LOX IMVI = tested on: LOX IMVI
M14 = tested on: M14
MDA-MB-231 = tested on: MDA-MB-231
MDA-MB-435 = tested on: MDA-MB-435
MDA-N = tested on: MDA-N
MOLT-4 = tested on: MOLT-4
Malme-3M = tested on: Malme-3M
NCI-H226 = tested on: NCI-H226
NCI-H23 = tested on: NCI-H23
NCI-H460 = tested on: NCI-H460
NCI-H522 = tested on: NCI-H522
NCI/ADR-RES = tested on: NCI/ADR-RES
OVCAR-3 = tested on: OVCAR-3
OVCAR-4 = tested on: OVCAR-4
OVCAR-5 = tested on: OVCAR-5
OVCAR-8 = tested on: OVCAR-8
PC-3 = tested on: PC-3
RPMI-8226 = tested on: RPMI-8226
RXF 393 = tested on: RXF 393
SF-268 = tested on: SF-268
SF-295 = tested on: SF-295
SF-539 = tested on: SF-539
SK-MEL-28 = tested on: SK-MEL-28
SK-MEL-2 = tested on: SK-MEL-2
SK-MEL-5 = tested on: SK-MEL-5
SK-OV-3 = tested on: SK-OV-3
SN12C = tested on: SN12C
SNB-19 = tested on: SNB-19
SR = tested on: SR
SW-620 = tested on: SW-620
T47D = tested on: T47D
TK-10 = tested on: TK-10
U-251 = tested on: U-251
UACC-257 = tested on: UACC-257
UACC-62 = tested on: UACC-62
UO-31 = tested on: UO-31

Compound: C[C@H]1[C@@H](c2ccccc2)O[B-](c2ccccc2)(c2ccccc2)[N+]1(C)C
- GI50 (786-0): 78.2 µM (inactive)
- GI50 (A498): 86.1 µM (inactive)
- GI50 (A549): 74.1 µM (inactive)
- GI50 (ACHN): 34.3 µM (inactive)
- GI50 (BT-549): 33.5 µM (inactive)
- GI50 (CAKI-1): 34.3 µM (inactive)
- GI50 (CCRF-CEM): > 100 µM (inactive)
- GI50 (COLO 205): 16.1 µM (inactive)
- GI50 (DU-145): 57 µM (inactive)
- GI50 (EKVX): > 100 µM (inactive)
- GI50 (HCT-116): 49.7 µM (inactive)
- GI50 (HCT-15): 38.4 µM
- GI50 (HL-60): > 100 µM (inactive)
- GI50 (HOP-62): > 100 µM (inactive)
- GI50 (HOP-92): 23.8 µM (inactive)
- GI50 (HT-29): 10 µM (inactive)
- GI50 (Hs-578T): 51.9 µM (inactive)
- GI50 (IGROV-1): > 100 µM (inactive)
- GI50 (K562): 48.5 µM (inactive)
- GI50 (KM12): > 100 µM (inactive)
- GI50 (LOX IMVI): > 100 µM (inactive)
- GI50 (M14): 27.7 µM (inactive)
- GI50 (MDA-MB-231): 21.4 µM (inactive)
- GI50 (MDA-MB-435): 61.8 µM (inactive)
- GI50 (MDA-N): 48.8 µM (inactive)
- GI50 (MOLT-4): 43.6 µM (inactive)
- GI50 (Malme-3M): 54.8 µM (inactive)
- GI50 (NCI-H226): 37.7 µM (inactive)
- GI50 (NCI-H23): 70.1 µM (inactive)
- GI50 (NCI-H460): > 100 µM (inactive)
- GI50 (NCI-H522): 35.7 µM (inactive)
- GI50 (NCI/ADR-RES): 76.7 µM (inactive)
- GI50 (OVCAR-3): 40.6 µM (inactive)
- GI50 (OVCAR-4): > 100 µM (inactive)
- GI50 (OVCAR-5): > 100 µM (inactive)
- GI50 (OVCAR-8): 79.3 µM (inactive)
- GI50 (PC-3): < 0.01 µM (active)
- GI50 (RPMI-8226): 31.3 µM (inactive)
- GI50 (RXF 393): 45.5 µM (inactive)
- GI50 (SF-268): > 100 µM (inactive)
- GI50 (SF-295): 32.6 µM (inactive)
- GI50 (SF-539): 33.3 µM (inactive)
- GI50 (SK-MEL-28): 48 µM (inactive)
- GI50 (SK-MEL-2): > 100 µM (inactive)
- GI50 (SK-MEL-5): 28.1 µM (inactive)
- GI50 (SK-OV-3): > 100 µM (inactive)
- GI50 (SN12C): 99.3 µM (inactive)
- GI50 (SNB-19): > 100 µM (inactive)
- GI50 (SR): 21.5 µM (inactive)
- GI50 (SW-620): 56.5 µM (inactive)
- GI50 (T47D): 34.7 µM (inactive)
- GI50 (TK-10): 36.3 µM (inactive)
- GI50 (U-251): > 100 µM (inactive)
- GI50 (UACC-257): 84.1 µM (inactive)
- GI50 (UACC-62): 52 µM (inactive)
- GI50 (UO-31): 19.3 µM (inactive)

Reference: ChEMBL document CHEMBL1201862, “PubChem BioAssay data set” (2004)
